In ChEMBL document CHEMBL5729726, “Tricyclic compounds as histone methyltransferase inhibitors” (2023):

Biological target: T1, Histone-lysine N-methyltransferase EHMT2 (Homo sapiens, UniProt Q96KQ7)
T1 sequence (Q96KQ7 whole entry): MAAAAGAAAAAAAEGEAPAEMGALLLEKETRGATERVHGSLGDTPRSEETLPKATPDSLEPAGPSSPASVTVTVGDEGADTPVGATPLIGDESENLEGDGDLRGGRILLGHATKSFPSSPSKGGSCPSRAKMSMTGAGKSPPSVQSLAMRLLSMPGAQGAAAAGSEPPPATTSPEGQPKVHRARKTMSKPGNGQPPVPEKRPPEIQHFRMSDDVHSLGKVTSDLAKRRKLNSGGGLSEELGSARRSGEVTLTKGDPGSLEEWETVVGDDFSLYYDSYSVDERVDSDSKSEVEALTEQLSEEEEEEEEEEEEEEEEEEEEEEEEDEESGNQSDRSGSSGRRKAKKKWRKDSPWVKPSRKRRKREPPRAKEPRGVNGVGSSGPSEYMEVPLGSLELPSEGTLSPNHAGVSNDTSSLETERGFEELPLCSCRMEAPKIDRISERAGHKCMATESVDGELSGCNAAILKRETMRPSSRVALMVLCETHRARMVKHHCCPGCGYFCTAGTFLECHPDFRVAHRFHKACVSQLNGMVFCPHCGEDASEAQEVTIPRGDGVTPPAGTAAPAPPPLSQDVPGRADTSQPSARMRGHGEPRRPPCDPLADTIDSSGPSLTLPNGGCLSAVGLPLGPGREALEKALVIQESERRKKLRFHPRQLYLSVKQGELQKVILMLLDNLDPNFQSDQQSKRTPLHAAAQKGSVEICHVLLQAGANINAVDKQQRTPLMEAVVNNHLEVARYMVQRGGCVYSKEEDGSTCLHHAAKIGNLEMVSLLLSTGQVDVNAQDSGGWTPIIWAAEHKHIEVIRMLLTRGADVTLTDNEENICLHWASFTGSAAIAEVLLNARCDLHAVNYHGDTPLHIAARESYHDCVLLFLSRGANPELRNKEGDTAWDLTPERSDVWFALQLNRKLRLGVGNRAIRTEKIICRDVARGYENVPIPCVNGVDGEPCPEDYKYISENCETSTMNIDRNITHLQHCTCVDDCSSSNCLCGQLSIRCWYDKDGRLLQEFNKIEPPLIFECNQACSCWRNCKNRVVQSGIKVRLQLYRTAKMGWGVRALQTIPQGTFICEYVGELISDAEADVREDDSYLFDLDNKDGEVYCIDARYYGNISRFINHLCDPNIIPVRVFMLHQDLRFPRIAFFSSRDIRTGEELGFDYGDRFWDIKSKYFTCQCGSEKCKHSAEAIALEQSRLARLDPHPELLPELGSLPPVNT
Test: Enzymatic Activity Assay: For the assay, the following buffer was used to set up reactions: 50 mM Tris-HCl pH9, 50 mM NaCl, 0.01% Tween-20 and 1 mM DTT (added fresh prior to starting the reactions). The assay is set up by adding a final concentration of 0.15 nM G9a, 15 uM S-adenosyl-methionine and 100 nM biotinylated histone 3 peptide (1-21). The reaction is incubated at rt for 1 hour and subsequently quenched with the acceptor beads (anti-H3k9me2 AlphaLISA acceptor beads, Perkin Elmer #AL117) at a final concentration of 20 ug/mL. The acceptor beads are incubated for 1 hour. After 1 hour, the donor beads are added at a final concentration of 20 ug/mL (Alpha Streptavidin donor beads, PerkinElmer #6760002). Donor beads are incubated for 0.5 hours. Both donor and acceptor beads are resuspended in AlphaLISA 5X Epigenetics Buffer 1 Kit (PerkinElmer #AL008) prior to addition to the reaction. All manipulations and incubations with the donor and acceptor beads are done in subdued light. Signal is detected in an EnVision plate reader in Alpha mode.

IC50 [µM] | SMILES
0.617 | COc1cc2nc3c(c(NC4CCN(C5CCOC5)CC4)c2cc1OC)CCC3 (centres undefined)
1.74 | COc1cc2nc3c(c(NCC4CN(c5ccccc5F)C4)c2cc1OC)CCC3
≥ 10 | COc1cc2nc3c(c(NC4CCN(C(C)C)CC4)c2cc1OC)CCCC3
0.0537 | COc1cc2nc3c(c(NC4CC(C)(C)NC(C)(C)C4)c2cc1OC)CCC3
